# From ChEMBL document CHEMBL3886653, “Cytomegalovirus inhibitor compounds” (2016)
# Target: T1, DNA polymerase catalytic subunit (Human cytomegalovirus (strain AD169) (HHV-5) (Human herpesvirus 5), UniProt P08546)
# T1 sequence (P08546 whole entry): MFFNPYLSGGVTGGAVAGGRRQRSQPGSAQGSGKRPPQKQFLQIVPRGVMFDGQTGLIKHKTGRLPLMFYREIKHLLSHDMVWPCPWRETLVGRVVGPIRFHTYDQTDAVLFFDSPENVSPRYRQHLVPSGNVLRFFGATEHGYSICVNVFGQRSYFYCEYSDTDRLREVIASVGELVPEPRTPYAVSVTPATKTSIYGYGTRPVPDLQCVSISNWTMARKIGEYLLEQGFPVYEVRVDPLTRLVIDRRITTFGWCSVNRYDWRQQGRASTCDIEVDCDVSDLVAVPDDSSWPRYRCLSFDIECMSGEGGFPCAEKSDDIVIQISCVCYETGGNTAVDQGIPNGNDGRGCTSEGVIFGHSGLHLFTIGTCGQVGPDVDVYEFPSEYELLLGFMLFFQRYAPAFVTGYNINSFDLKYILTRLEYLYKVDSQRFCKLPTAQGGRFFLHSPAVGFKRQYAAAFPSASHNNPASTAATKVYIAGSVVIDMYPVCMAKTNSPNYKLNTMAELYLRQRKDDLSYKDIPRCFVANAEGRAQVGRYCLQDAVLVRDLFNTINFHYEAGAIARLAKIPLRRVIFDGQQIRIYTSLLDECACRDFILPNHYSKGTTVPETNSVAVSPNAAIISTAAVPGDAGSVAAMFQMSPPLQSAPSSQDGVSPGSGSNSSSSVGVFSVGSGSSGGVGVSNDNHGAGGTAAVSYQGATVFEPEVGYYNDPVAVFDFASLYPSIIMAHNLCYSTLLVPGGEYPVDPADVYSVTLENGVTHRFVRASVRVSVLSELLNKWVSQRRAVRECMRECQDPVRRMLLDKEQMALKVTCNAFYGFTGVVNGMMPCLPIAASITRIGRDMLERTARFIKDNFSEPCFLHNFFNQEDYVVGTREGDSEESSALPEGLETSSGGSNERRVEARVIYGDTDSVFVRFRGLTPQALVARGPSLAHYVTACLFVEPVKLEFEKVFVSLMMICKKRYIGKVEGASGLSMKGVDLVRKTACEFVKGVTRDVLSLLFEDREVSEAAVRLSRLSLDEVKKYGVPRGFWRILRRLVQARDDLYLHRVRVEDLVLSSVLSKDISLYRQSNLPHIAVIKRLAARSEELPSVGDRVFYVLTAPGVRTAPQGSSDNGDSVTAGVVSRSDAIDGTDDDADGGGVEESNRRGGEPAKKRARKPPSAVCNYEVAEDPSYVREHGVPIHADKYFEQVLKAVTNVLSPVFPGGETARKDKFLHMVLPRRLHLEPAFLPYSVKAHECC
# Experiment: HCMV Polymerase LANCE TR-FRET Assay: The assay conditions are the following: 10 mM HEPES pH 7.5, 25 mM KCl, 7.5 mM NaCl, 5 mM MgCl2, 0.2 mg BSA/mL, 1 mM TCEP, 1.5% glycerol, 5% DMSO, 235 nM dATP, 350 nM dCTP, 350 nM dGTP, 235 nM dTTP, 12 nM biotin-16-dUTP, 23.5 nM Dig-primer/template, 2 nM GST-UL54. The assay volume is 10 μL. Each reagent is added as follow: 4 μL a+3 μL b+3 μL c; a: compound diluted in compound dilution buffer to obtain 12.5% DMSO; b: enzyme (GST-UL54) in 10 mM Hepes pH 7.5, 25 mM KCl, 5 mM MgCl2, 25 mM NaCl, 5% Glycerol, 0.67 mg BSA/mL, 1 mM TCEP w/o DMSO (2 nM GST-UL54 is present in the assay); c: substrate in 10 mM HEPES pH 7.5, 25 mM KCl, 5 mM MgCl2, 1 mM TCEP, 783 nM dATP, 1166 nM dCTP, 1166 nM dGTP, 783 nM dTTP, 40 nM biotin-16-dUTP, 78 nM Dig-primer (5'-/Dig/AGC TCG TTT AGT GAA CC-3')/template (5'-GAGGTCAAAACAGCGTGGATGGCGTCTCCAGGCGATCTGACGGTTCACTAAACGAGCT-3') w/o DMSO. The primer and template are annealed in 10 mM Tris-HCl pH 7.5, 50 mM NaCl at a respective concentration of 50 μM. They are incubated at 95 °C. for 5 min in a dry batch block. The block is removed from the dry bath and allowed to cool to RT. Aliquots are made and stored at −20 °C. To perform the assay, 3 μL of the enzyme solution is added to columns 2-12 and 14-24. The enzyme is substituted by the blank solution (b solution without enzyme) for columns 1 and 13 (blanks). The plate is centrifuged at 200×g for 30 sec. 3 μL of substrate solution is added to each well. The plate is centrifuged at 200×g for 30 sec. Plates are incubated at 37 °C. for 30 min. 5 μL of conjugate solution is added (25 mM Hepes pH 7.5, 0.1 M NaCl, 0.25% Tween-20, 1 mg/mL BSA, 12 mM EDTA, 24 nM Sreptavidin-APC, 342 ng/mL Anti-Dig-Europium). The plates are incubated at RT for at least 120 min. The signal is read on the Envision plate reader (Perkin-Elmer) or equivalent.
row,Compound,IC50 [nM]
1,CNc1ccc2cc(C(=O)NCc3ccc(Cl)cc3)c(=O)n(CC(=O)N3CC(C)(O)C3)c2n1,120
2,COc1c(-c2sc(C)nc2C)cnc2c1cc(C(=O)NCc1ccc(Cl)cc1)c(=O)n2CC(=O)N1CC(C)(C)C1,1200
3,CC1(C)CN(C(=O)Cn2c(=O)c(C(=O)NCc3ccc(Cl)cc3)cc3cc(CN4CCNC(C(F)(F)F)C4)cnc32)C1 (centres undefined),74
4,Cn1cnc(-c2cc3cc(C(=O)NCc4ccc(Cl)cc4)c(=O)n(CC(=O)N4CC(C)(F)C4)c3nc2N)c1,77
5,NC(=O)[C@@H]1C[C@H](F)CN1C(=O)CCn1c(=O)c(C(=O)NCc2ccc(Cl)cc2)cc2cccnc21,210
6,CS(=O)(=O)C1CN(C(=O)Cn2c(=O)c(C(=O)NCc3ccc(Cl)cc3)cc3cccnc32)C1,17000
7,NCC1CCN(C(=O)Cn2c(=O)c(C(=O)NCc3ccc(Cl)cc3)cc3cccnc32)C1 (centres undefined),5600
8,CC1CN(C(=O)Cn2c(=O)c(C(=O)NCc3ccc(Cl)cc3)cc3cc(OCC4(C#N)CC4)cnc32)C1,170
9,Cc1noc(C2CCN(C(=O)Cn3c(=O)c(C(=O)NCc4ccc(Cl)cc4)cc4cccnc43)C2)n1 (centres undefined),10000
10,Cc1cc(Nc2cnc3c(c2)cc(C(=O)NCc2ccc(Cl)cc2)c(=O)n3CC(=O)N2CC(C)(C)C2)n(C)n1,180
11,CCn1cc(-c2c(O)cnc3c2cc(C(=O)NCc2ccc(Cl)cc2)c(=O)n3CC(=O)N2CC(C)(C)C2)cn1,160
12,CC1CN(C(=O)Cn2c(=O)c(C(=O)NCc3ccc(Cl)cc3)cc3c(-c4cnc(N)nc4)c(-c4cnn(C)c4)cnc32)C1,120
13,CC(C)c1ccnc2c1cc(C(=O)NCc1ccc(Cl)cc1)c(=O)n2CC(=O)N1CC(C)(C)C1,200
14,COc1cc(N)nc2c1cc(C(=O)NCc1ccc(Cl)cc1)c(=O)n2CC(=O)N(C)CC1(CO)COC1,22
15,CC1(C)CN(C(=O)Cn2c(=O)c(C(=O)NCc3ccc(Cl)cc3)cc3cc(C(=O)NCc4cnccn4)cnc32)C1,65
16,CC(=O)NC1CCN(c2cnc3c(c2)cc(C(=O)NCc2ccc(Cl)cc2)c(=O)n3CC(=O)N2CC(C)(C)C2)C1 (centres undefined),190
17,Cc1nc(-c2cnc3c(c2)cc(C(=O)NCc2ccc(Cl)cc2)c(=O)n3CC(=O)N2CC(C)(C)C2)cn1C,130
18,CN(CC(=O)O)c1ccnc2c1cc(C(=O)NCc1ccc(Cl)cc1)c(=O)n2CC(=O)N1CC(C)(C)C1,50

row,Compound,IC50 [nM]
1,Cn1nccc1Cc1cnc2c(c1)cc(C(=O)NCc1ccc(Cl)cc1)c(=O)n2CC(=O)N1CC(C)(C)C1,65
2,O=C(NCc1ccc(Cl)cc1)c1cc2cccnc2n(CC(=O)N2CC3(CC3)C2)c1=O,280
3,Cn1cnc(-c2cnc3c(c2)cc(C(=O)NCc2ccc(Cl)cc2)c(=O)n3CC(=O)N2CC(C)(F)C2)c1,120
4,CN(CC(C)(C)CO)C(=O)Cn1c(=O)c(C(=O)NCc2ccc(Cl)cc2)cc2ccc(-c3cn[nH]c3)nc21,1000
5,Cn1cc(-c2cnc3c(cc(C(=O)NCc4ccc(Cl)cc4)c(=O)n3CC(=O)N3CC(C)(C)C3)c2N2CC(O)C2)cn1,180
6,CC1(C)CN(C(=O)Cn2c(=O)c(C(=O)NCc3ccc(Cl)cc3)cc3c(-c4cnc(N)nc4)ccnc32)C1,71
7,CC1(C)CN(C(=O)Cn2c(=O)c(C(=O)NCc3ccc(Cl)cc3)cc3c(OC[C@@H]4CCC(=O)N4)ccnc32)C1,62
8,CC1(C)CN(C(=O)Cn2c(=O)c(C(=O)NCc3ccc(Cl)cc3)cc3c(Oc4cccnc4)ccnc32)C1,280
9,CC1(C)CN(C(=O)Cn2c(=O)c(C(=O)NCc3ccc(Cl)cc3)cc3c(CCN4CCC4)ccnc32)C1,280
10,CC1(F)CN(C(=O)Cn2c(=O)c(C(=O)NCc3ccc(C#N)cc3)cc3cc(-c4c[nH]cn4)cnc32)C1,320
11,Cn1cc(-c2cnc3c(c2)cc(C(=O)NCc2ccc(Cl)cc2)c(=O)n3CC(=O)N2CC(F)(CF)C2)cn1,59
12,CN(C(=O)Cn1c(=O)c(C(=O)NCc2ccc(Cl)cc2)cc2cccnc21)C1CC(O)C1 (centres undefined),220
13,CC1(C)CN(C(=O)Cn2c(=O)c(C(=O)NCc3ccc(Cl)cc3)cc3cc(-c4nn[nH]n4)cnc32)C1,30
14,COc1c(-c2cnn(C)c2)cnc2c1cc(C(=O)NCc1ccc(Cl)cc1)c(=O)n2CC(=O)N1CCC(CO)C1 (centres undefined),140
15,CN(CC(C)(C)CO)C(=O)Cn1c(=O)c(C(=O)NCc2ccc(Cl)cc2)cc2ccc(NC3CC3)nc21,970
16,COCCNc1ccnc2c1cc(C(=O)NCc1ccc(Cl)cc1)c(=O)n2CC(=O)N1CC(C)(C)C1,200
17,Cn1cc(-c2cc3cc(C(=O)NCc4ccc(Cl)cc4)c(=O)n(CC(=O)N4CC(C)(O)C4)c3nc2N)cn1,110
18,COc1cc(CNC(=O)c2cc3cc(-c4cn(C)cn4)cnc3n(CC(=O)N3CC(C)(F)C3)c2=O)ccc1Cl,400

# Target: T1, DNA polymerase catalytic subunit
# Experiment: HCMV Polymerase Scintillation Proximity Assay: The assay conditions are the following: 10 mM HEPES pH 7.5, 25 mM KCl, 7.5 mM NaCl, 5 mM MgCl2, 0.2 mg BSA/mL, 1 mM TCEP, 1.5% glycerol, 2 μM dTTP, 90 nM 3H-dTTP (minor variations in concentration are possible due to specific activity of stock), 26 nM Poly(dA)/190 nM BioTEG-dT19; 5% DMSO. The assay volume is 30 μL. Each reagent is added at a 3× conc.: 10 μL a+10 μL b+10 μL c; a: compound diluted in 10 mM Hepes pH 7.5, 25 mM KCl, 5 mM MgCl2, 1 mM TCEP with 15% DMSO; b: enzyme (GST-UL54) in 10 mM Hepes pH 7.5, 25 mM KCl, 5 mM MgCl2, 22.5 mM NaCl, 4.5% Glycerol, 0.6 mg BSA/mL, 1 mM TCEP w/o DMSO (1 nM GST-UL54 is present in the assay); c: substrate in 10 mM Hepes pH 7.5, 25 mM KCl, 5 mM MgCl2, 1 mM TCEP, 6 μM dTTP, 270 nM 3H-dTTP, 78 nM Poly(dA)/570 nM BioTEG-dT19 w/o DMSO. To perform the assay, 10 μL enzyme solution is added to columns 2-12 and 14-24. The enzyme is substituted by the blank solution (b solution without enzyme) for columns 1 and 13 (blanks). The plate is centrifuged at 200×g for 30 sec. 10 μL of substrate solution is added to each well. The plate is centrifuged at 200×g for 30 sec. The plates are incubated at 37 °C. for 40 min. To stop the reaction, 25 μL of SPA beads (5 mg/mL in 0.5 M EDTA) are added and mixed by pipetting up and down. The plates are incubated at RT for at least 15 min. 35 μL of 5 M CsCl is added to the bottom of each well. TopSeal is applied to the plate and the plate is incubated at RT for at least 90 min prior to reading. The signal is read on TopCount plate reader (Perkin-Elmer) or equivalent.
row,Compound,IC50 [nM]
1,CC1(C)CN(C(=O)Cn2c(=O)c(C(=O)NCc3ccc(Cl)c(Cl)c3)cc3cccnc32)C1,14000
2,O=C(NCc1ccc(Cl)cc1)c1cc2cccnc2n(CC(=O)N2CCCOCC2)c1=O,16000
3,CC1(C)CN(C(=O)Cn2c(=O)c(C(=O)NCc3ccc(Cl)c(C(F)(F)F)c3)cc3cccnc32)C1,38000
